Reference: ChEMBL document CHEMBL1126453, “Synthesis and anti-herpes activity of 5-trifluorovinyl-2-deoxyuridine” (1992)

How the values were obtained:
[1] = Minimum antiviral concentration required to reduce virus-induced cytopathogenicity against HSV-1 (KOS) in E6SM cells; format: functional
[2] = Minimum antiviral concentration required to reduce virus-induced cytopathogenicity against HSV-2 (G) in E6SM cells; format: functional
[3] = Minimum antiviral concentration required to reduce virus-induced cytopathogenicity against TK' HSV-1 (VMW 1837) in E6SM cells; format: functional
[4] = Minimum antiviral concentration required to reduce virus-induced cytopathogenicity against TK-HSV-1 (B2006) in E6SM cells; format: functional
[5] = Minimum antiviral concentration required to reduce virus-induced cytopathogenicity against vaccinia virus in E6SM cells; format: functional
[6] = Minimum cytotoxic concentration required to cause alteration of normal E6SM cell culture morphology; format: functional; settings: read-out: Min cytotoxic concentration
HEL [7] = experiment: Minimum antiviral concentration required to reduce virus-induced cytopathogenicity against TK' VZV (07/1) in HEL cells; format: functional, Homo sapiens
HEL [8] = experiment: Minimum antiviral concentration required to reduce virus-induced cytopathogenicity against TK' VZV (YS/R) in HEL cells; format: functional, Homo sapiens
HEL [9] = experiment: Minimum antiviral concentration required to reduce virus-induced cytopathogenicity against VZV (OKA) in HEL cells; format: functional, Homo sapiens
HEL [10] = experiment: Minimum antiviral concentration required to reduce virus-induced cytopathogenicity against VZV (YS) in HEL cells; format: functional, Homo sapiens
HEL [11] = experiment: Minimum cytotoxic concentration required to cause alteration of normal human […] (HEL) morphology; format: functional; settings: read-out: Min cytotoxic concentration
[12] = Minimum antiviral concentration required to reduce virus-induced cytopathogenicity against TK' HSV-1 (B2006) in E6SM cells; format: functional
[13] = Minimum antiviral concentration required to reduce virus-induced cytopathogenicity against Vaccinia virus in E6SM cells; format: functional
HEL [14] = experiment: Minimum cytotoxic concentration required to cause alteration of normal human […] (HEL) morphology in HEL cells; format: functional; settings: read-out: Min cytotoxic concentration

SMILES	Min antiviral concentration [1] [µg/mL]	Min antiviral concentration [2] [µg/mL]	Min antiviral concentration [3] [µg/mL]	Min antiviral concentration [4] [µg/mL]	Min antiviral concentration [5] [µg/mL]	MCC [6] [µg/mL]	Min antiviral concentration (HEL [7]) [µg/mL]	Min antiviral concentration (HEL [8]) [µg/mL]	Min antiviral concentration (HEL [9]) [µg/mL]	Min antiviral concentration (HEL [10]) [µg/mL]	MCC (HEL [11]) [µg/mL]	Min antiviral concentration [12] [µg/mL]	Min antiviral concentration [13] [µg/mL]	MCC (HEL [14]) [µg/mL]
O=c1[nH]c(=O)n([C@H]2C[C@H](O)[C@@H](CO)O2)cc1C(F)=C(F)F	0.05	13	1.5	13	8	100	13.6	11.6	0.16	0.55	10	–	–	–
O=c1[nH]c(=O)n([C@H]2C[C@H](O)[C@@H](CO)O2)cc1/C=C/Br [BRIVUDINE]	0.02	100	40	–	–	200	>10	>10	0.002	0.004	–	100	0.3	200
